Laboratory results taken from ChEMBL document CHEMBL4765381, “Neuropeptide FF and Its Receptors: Therapeutic Applications and Ligand Development” (J Med Chem, 2020).
Square brackets hold non-standard residues; d marks the D form. Peptide text beside a SMILES is read from it. NMeF = CN[C@@H](Cc1ccccc1)C(=O)O

Tests used:
[1] = biological target: T1, Neuropeptide FF receptor 1 (Homo sapiens, UniProt Q9GZQ6); assay: Antagonist activity at human NPFFR1 expressed in CHO-K1 cells assessed as apparent dissociation constant Ke by Eu-cAMP tracer based TR-FRET assay; type: functional, cell-based; settings: filed as antagonist
[2] = biological target: T1, Neuropeptide FF receptor 1; assay: Displacement of [125I]NPFF from human NPFFR1 expressed in CHO cell membranes incubated for 120 mins by scintillation/luminescence counting method; parameters: species or system Membrane
[3] = biological target: T2, Neuropeptide FF receptor 2 (Homo sapiens, UniProt Q9Y5X5); assay: Displacement of [125I]NPFF from human NPFFR2 expressed in CHO cell membranes incubated for 120 mins by scintillation/luminescence counting method; parameters: species or system Membrane
[4] = biological target: T1, Neuropeptide FF receptor 1; assay: Antagonist activity at human NPFFR1 expressed in CHO-RD-HGA16 cells assessed as reduction in NPFF-induced calcium influx by measuring apparent dissociation constant Ke preincubated for 15 mins followed by NPFF addition by calcium-5 dye based fluorescence method; type: functional, cell-based; settings: CHO/Galpha16, filed as antagonist
[5] = biological target: T2, Neuropeptide FF receptor 2; assay: Antagonist activity at human NPFFR2 expressed in CHO-RD-HGA16 cells assessed as reduction in NPFF-induced calcium influx by measuring apparent dissociation constant Ke preincubated for 15 mins followed by NPFF addition by calcium-5 dye based fluorescence method; type: functional, cell-based; settings: CHO/Galpha16, filed as antagonist
[6] = biological target: T2, Neuropeptide FF receptor 2; assay: Antagonist activity at human NPFFR2 expressed in CHO-K1 cells assessed as apparent dissociation constant Ke by Eu-cAMP tracer based TR-FRET assay; type: functional, cell-based; settings: filed as antagonist
[7] = Displacement of [125I][Tyr1]-NPFF from NPFF receptor in rat spinal cord membranes by Cheng-Prusoff analysis; type: cell membranes, Membrane
Mus musculus = assay: Reversal of morphine-induced analgesia in icv dosed CDF1 mouse assessed as minimum effective dose measured after 15 mins by tail-flick test; type: functional; settings: 0.25 h
[8] = biological target: T2, Neuropeptide FF receptor 2; assay: Displacement of [125I]-1DMeNPFF from human NPFFR2 expressed in HEK293 cells incubated for 2 hrs by scintillation counting method; type: cell-based
[9] = Binding affinity to NPFFR in rat spinal cord; type: tissue-based
[10] = biological target: T1, Neuropeptide FF receptor 1; assay: Displacement of [125I]YVP from human NPFFR1 expressed in HEK293 cells by radioligand binding assay; type: cell-based
[11] = biological target: T2, Neuropeptide FF receptor 2; assay: Agonist activity at human NPFFR2 expressed in CHO cells assessed as inhibition of forskolin-induced intracellular cAMP production incubated for 5 hrs by firefly/renilla luciferase reporter assay; type: functional, cell-based
[12] = biological target: T2, Neuropeptide FF receptor 2; assay: Displacement of TAMRA-NPFF from human NPFFR2 expressed in CHO-K1 cells preincubated for 15 mins followed by GTPgammaS addition and measured after 15 to 120 mins by competitive binding assay; type: cell-based
[13] = Displacement of [ […]]Y8Famide from NPFFR in rat spinal cord membranes; type: cell membranes, Membrane
[14] = Displacement of [125I]-1DMe from NPFF receptor in Sprague-Dawley rat dorsal horn of spinal cord incubated for 150 mins by autoradiography; type: tissue-based
[15] = biological target: T2, Neuropeptide FF receptor 2; assay: Antagonist activity at human NPFFR2 expressed in CHO-K1 cells assessed as reversal of agonist-induced inhibition of forskolin-stimulated cAMP accumulation incubated for 30 mins by LANCE ultra cAMP assay; type: functional, cell-based
[16] = biological target: T1, Neuropeptide FF receptor 1; assay: Antagonist activity at human NPFFR1 expressed in CHO-K1 cells assessed as reversal of agonist-induced inhibition of forskolin-stimulated cAMP accumulation incubated for 30 mins by LANCE ultra cAMP assay; type: functional, cell-based
[17] = biological target: Neuropeptide FF receptor 2 (Rattus norvegicus) (UniProt Q9EQD2); assay: Agonist activity at rat NPFFR2 by cell-based assay relative to control; settings: filed as agonist
[18] = biological target: T3, Pyroglutamylated RF-amide peptide receptor (Homo sapiens, UniProt Q96P65); assay: Displacement of [125I]-43RFa from human QRFP receptor expressed in CHO cell membrane by TopCount scintillation counter method; type: cell membranes
T3 sequence (Q96P65 whole entry): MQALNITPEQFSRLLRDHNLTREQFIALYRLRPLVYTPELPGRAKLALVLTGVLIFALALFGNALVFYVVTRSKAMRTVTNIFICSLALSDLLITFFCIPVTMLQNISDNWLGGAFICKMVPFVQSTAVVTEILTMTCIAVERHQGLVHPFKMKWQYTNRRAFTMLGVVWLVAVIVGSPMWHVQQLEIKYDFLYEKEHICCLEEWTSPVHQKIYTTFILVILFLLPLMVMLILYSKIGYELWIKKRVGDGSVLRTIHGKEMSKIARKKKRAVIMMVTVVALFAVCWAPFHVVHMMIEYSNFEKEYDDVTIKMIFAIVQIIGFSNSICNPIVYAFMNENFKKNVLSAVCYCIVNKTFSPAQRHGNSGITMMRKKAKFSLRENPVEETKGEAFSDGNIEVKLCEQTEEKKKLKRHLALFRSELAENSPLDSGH

[19] = biological target: T4, Prolactin-releasing peptide receptor (Homo sapiens, UniProt P49683); assay: Displacement of [3H]-PrRP-20 from human PrRP receptor expressed in CHO cell membrane by TopCount scintillation counter method; type: cell membranes
T4 sequence (P49683 whole entry): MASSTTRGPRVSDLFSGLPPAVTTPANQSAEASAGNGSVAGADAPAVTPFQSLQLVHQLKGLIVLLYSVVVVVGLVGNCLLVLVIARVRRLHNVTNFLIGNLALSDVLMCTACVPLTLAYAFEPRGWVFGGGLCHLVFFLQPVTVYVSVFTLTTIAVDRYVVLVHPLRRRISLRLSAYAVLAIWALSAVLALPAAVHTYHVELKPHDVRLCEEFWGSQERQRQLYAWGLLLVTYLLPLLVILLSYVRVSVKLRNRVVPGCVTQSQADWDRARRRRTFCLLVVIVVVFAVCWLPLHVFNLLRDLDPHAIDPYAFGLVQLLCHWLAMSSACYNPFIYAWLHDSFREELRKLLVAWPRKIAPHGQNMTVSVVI

KiSS-1 receptor = KiSS-1 receptor (Homo sapiens, UniProt Q969F8); assay: Displacement of [125I]-Kp-10 from human KISS1R expressed in CHO cell membrane by TopCount scintillation counter method; type: cell membranes
[20] = biological target: T1, Neuropeptide FF receptor 1; assay: Agonist activity at NPFFR1 (unknown origin) expressed in mouse NIH3T3 cells by receptor selection and amplification technology assay relative to control; type: cell-based

T1 sequence (Q9GZQ6 whole entry): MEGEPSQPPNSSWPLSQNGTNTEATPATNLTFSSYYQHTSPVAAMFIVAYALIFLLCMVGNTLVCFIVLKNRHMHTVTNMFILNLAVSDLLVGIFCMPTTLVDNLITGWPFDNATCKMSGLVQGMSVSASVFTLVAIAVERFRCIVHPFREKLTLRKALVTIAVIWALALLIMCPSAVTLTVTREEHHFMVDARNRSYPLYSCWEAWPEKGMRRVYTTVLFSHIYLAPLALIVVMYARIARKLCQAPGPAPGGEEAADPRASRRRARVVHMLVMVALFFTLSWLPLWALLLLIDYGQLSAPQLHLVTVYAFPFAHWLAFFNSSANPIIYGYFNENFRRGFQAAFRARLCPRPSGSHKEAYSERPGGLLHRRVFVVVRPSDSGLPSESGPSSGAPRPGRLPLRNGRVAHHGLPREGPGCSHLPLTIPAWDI
T2 sequence (Q9Y5X5 whole entry): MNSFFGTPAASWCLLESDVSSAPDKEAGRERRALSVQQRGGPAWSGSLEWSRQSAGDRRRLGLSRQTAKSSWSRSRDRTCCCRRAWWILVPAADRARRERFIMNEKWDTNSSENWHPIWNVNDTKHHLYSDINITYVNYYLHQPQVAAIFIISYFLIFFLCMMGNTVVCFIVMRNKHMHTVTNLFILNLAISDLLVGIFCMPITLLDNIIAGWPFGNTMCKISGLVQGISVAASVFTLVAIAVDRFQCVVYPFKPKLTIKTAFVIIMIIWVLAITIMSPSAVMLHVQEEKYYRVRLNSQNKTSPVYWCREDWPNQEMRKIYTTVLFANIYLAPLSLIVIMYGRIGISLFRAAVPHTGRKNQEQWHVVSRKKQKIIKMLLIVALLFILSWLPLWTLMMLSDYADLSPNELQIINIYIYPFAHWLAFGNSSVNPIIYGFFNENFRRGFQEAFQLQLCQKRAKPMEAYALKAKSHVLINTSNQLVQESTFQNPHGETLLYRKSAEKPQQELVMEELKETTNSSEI
Chain of KiSS-1 receptor (Q969F8 whole entry): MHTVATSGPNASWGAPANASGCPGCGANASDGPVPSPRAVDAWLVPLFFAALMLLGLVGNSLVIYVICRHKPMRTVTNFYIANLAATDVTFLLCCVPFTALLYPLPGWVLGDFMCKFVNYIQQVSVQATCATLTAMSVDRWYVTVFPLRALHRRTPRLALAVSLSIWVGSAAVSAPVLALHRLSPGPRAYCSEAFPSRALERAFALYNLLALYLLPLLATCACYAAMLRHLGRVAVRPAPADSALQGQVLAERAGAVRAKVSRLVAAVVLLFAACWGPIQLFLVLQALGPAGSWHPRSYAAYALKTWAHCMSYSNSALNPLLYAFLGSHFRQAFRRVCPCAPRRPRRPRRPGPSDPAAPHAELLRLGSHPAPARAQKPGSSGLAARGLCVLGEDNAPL
Chain of Neuropeptide FF receptor 2 (Rattus norvegicus) (Q9EQD2 whole entry): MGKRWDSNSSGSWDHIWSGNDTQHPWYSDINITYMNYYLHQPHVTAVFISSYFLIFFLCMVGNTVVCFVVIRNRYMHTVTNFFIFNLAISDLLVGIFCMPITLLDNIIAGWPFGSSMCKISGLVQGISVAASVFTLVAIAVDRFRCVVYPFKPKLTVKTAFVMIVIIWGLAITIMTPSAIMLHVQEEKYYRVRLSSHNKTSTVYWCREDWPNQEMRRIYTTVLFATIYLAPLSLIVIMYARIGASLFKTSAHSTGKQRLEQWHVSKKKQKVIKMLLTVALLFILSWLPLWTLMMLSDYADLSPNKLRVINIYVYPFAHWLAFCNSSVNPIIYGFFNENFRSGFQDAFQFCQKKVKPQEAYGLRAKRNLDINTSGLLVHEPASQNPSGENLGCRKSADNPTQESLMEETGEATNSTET

Question: Which results are given for CCCCCOC(=O)[C@@H]1C[C@H](NCc2ccc(OC)cc2)CN1Cc1ccccc1Cl?
Answer: Ke [1]: 0.36 µM; Ki [2]: 890 nM; Ki [3]: 1440 nM; Ke [4]: 0.85 µM; Ke [5]: 3.09 µM; Ke [6]: 2.15 µM

Question: With CC(C)C[C@H](NC(=O)[C@@H](N)Cc1ccccc1)C(=O)N[C@@H](Cc1ccccc1)C(=O)N[C@@H](CCC(N)=O)C(=O)NCC(=O)N[C@@H](CCC(N)=O)C(=O)N[C@@H](CCCN=C(N)N)C(=O)N[C@@H](Cc1ccccc1)C(N)=O (H-FLFQGQRF-NH2) as the compound, how does the Ki [7] read?
Answer: 1.2 nM

Question: What about the MEC (Mus musculus) of the same compound?
Answer: 8.8 nmol

Question: With CC(C)C[C@H](NC(=O)[C@H](N)Cc1ccc(O)cc1)C(=O)N(C)[C@@H](Cc1ccccc1)C(=O)N[C@@H](CCC(N)=O)C(=O)N1CCC[C@H]1C(=O)N[C@@H](CCC(N)=O)C(=O)N[C@@H](CCCN=C(N)N)C(=O)N[C@@H](Cc1ccccc1)C(N)=O (H-[dY]L[NMeF]QPQRF-NH2) as the compound, how does the Ki [8] read?
Answer: 3.2 nM

Question: What about the Ki [9] of the same compound?
Answer: 0.07 nM

Question: And the Ki [10]?
Answer: 2 nM

Question: Which EC50 [11] does the source give for COc1cc2c(c(OC)c1OC)-c1c(cc3c(c1OC)CC3)[C@@H](C(=O)Oc1ccccc1)[C@@](C)(O)[C@@H](C)C2 here?
Answer: 2220 nM

Question: What about the Ki [12] of the same compound?
Answer: 2.17 nM

Question: What does the source list for COc1ccc(CN[C@H]2C[C@@H](C(=O)OCCc3ccc([N+](=O)[O-])cc3)N(Cc3ccccc3Cl)C2)cc1?
Answer: Ke [1]: 0.49 µM; Ki [2]: 610 nM; Ki [3]: 1670 nM; Ke [4]: 0.25 µM; Ke [5]: 0.69 µM; Ke [6]: 1.17 µM

Question: Which Ki [13] does the source give for CN(C)c1cccc2c(S(=O)(=O)N3CCC[C@H]3C(=O)N[C@@H](CCC(N)=O)C(=O)N[C@@H](CCCNC(=N)N)C(N)=O)cccc12 [DANSYLPQRAMIDE] here?
Answer: 13000 nM

Question: For NC(=O)CC[C@H](NC(=O)[C@@H]1CCCN1)C(=O)N[C@@H](CCCN=C(N)N)C(=O)N[C@@H](Cc1ccccc1)C(N)=O, which Ki [14] is on record?
Answer: 15.5 nM

Question: Which IC50 [15] does the source give for N=C(N)NCCC[C@@H](NC(=O)C(c1ccccc1)c1ccccc1)C(=O)N[C@@H](C(N)=O)c1ccccc1 here?
Answer: 387 nM

Question: What about the IC50 [16] of the same compound?
Answer: 21 nM

Question: With Cc1cc(NC(=N)N)nc2ccc(Cl)cc12 as the compound, how does the Emax [17] read?
Answer: 61%

Question: Which Ki [18] does the source give for NC(N)=N/N=C/c1ccc(Cl)c(Cl)c1 here?
Answer: > 5000 nM

Question: And the Ki [19]?
Answer: > 5000 nM

Question: What about the Ki (KiSS-1 receptor) of the same compound?
Answer: > 5000 nM

Question: With N=C(N)N/N=C/c1ccc(Cl)c(Cl)c1 as the compound, how does the Efficacy [20] read?
Answer: 12%
